Inhibition and IC50 data for 25 molecules are collected here from patent US10155727B2, “Pyrazoles” (Janssen Pharmaceuticals, Inc., priority 2014, dated 2018).

Usually IC50 stands for the concentration that inhibits the measured activity by half.

The structures appear in SMILES notation. Read-outs that look alike come from different tables or passages of the source. Where only a bound is given, the exact number is not on record here.

One assay addresses rat NR1/NR2B receptor (Rattus norvegicus (Rat), UniProt P35439+Q00960). The experiment in a line: NR2B binding assay: inhibition of specific [3H]-Ifenprodil binding to the rat NR1/NR2B receptor. Particulars: [3H]-Ifenprodil binding, rat brain membranes; for inhibition at 1 µM: 1 μM test compound, read-out: % INH @ 1 μM. As to the method:
Biological Assays Inhibition of Specific Binding to the Rat NR1/NR2B Receptor
Male Wistar rats (180 to 200 g) were killed by suffocation in a CO2 chamber for two minutes. Whole brains without cerebellum were removed and dissected on ice, placed into closed vials and stored at −70° C.
Membrane fractions were prepared and tested using standard techniques. At the time of the assay, 1 g of the brains was placed into 25 ml of 50 mM Tris/10 mM EDTA buffer, pH 7.1, (25 vol. per g of original tissue) and homogenized for 30 sec at 20000 rpm with an Ultraturrax T25 (Jahnke & Kunkel, IKA-Labortechnik, Staufen, Germany).
The supernatant was discarded and the pellet was homogenized on ice for 30 sec at 20000 rpm with an Ultraturrax and again centrifuged at 48000 g for 30 minutes at 4° C. The resultant pellet was resuspended in 25 ml of 50 mM Tris/10 mM EDTA buffer, homogenized for 30 sec with an Ultraturrax, aliquoted, frozen at −70° C. and stored until use.
After thawing on the day of the assay, a 5 ml membrane aliquot was centrifuged at 48000 g for 30 min at 4° C. The pellet was resuspended in 5 ml of 5 mM Tris/1 mM EDTA buffer, pH 7.4, homogenized for 30 sec at 20000 rpm with an Ultraturrax and centrifuged at 48000 g for 30 min at 4° C. This was repeated twice. The final pellet was homogenized in 5 ml of 5 mM Tris/1 mM EDTA buffer at 4° C. with an Ultraturrax and used for the Ifenprodil-binding assay as described in the following.
Nonspecific binding was estimated in the presence of […] CP101.606. The samples were incubated for 60 min. at 4° C.
The incubation was terminated by filtration of the membrane preparations using Filtermat B (Pharmacia, Uppsala Sweden) and a Micro Cell Harvester (Skatron, Lier, Norway). The Filtermat B had been presoaked with 1% polyethylene imine and carefully washed with 50 mM Tris/HCl-buffer pH 7.7 after the filtration to separate free and bound radioactivity.
The optimal amount of membrane preparation in the assay was determined and optimized for each membrane preparation separately before the test.
For pipetting of the incubation mixture the robot Biomek2000 (Fa. Beckman) was used.
For determination of IC50 values the Hill-plot, 2-parameter-model was used.

Another assay addresses hERG receptor (Homo sapiens (Human), UniProt Q12809). The experiment in a line: HERGBD: inhibition of specific [3H]-Dofetilide binding to the hERG receptor. As to the method:
Inhibition of Specific Binding to the hERG—Receptor (HERGBD)
A HEK cell line with stable transfected human ERG receptor was used for the assay. The cells were grown adherently and maintained in DULBECCOS' MEM medium with 10% FBS, 1% non-essential amino acids, 1% Penicillin/Streptomycin and 400 μg/ml G418 (Calbiochem).
For binding assays and membrane preparations the cell culture medium was removed, cells were washed with PBS. Crude membranes for radioligand binding experiments were prepared by scraping the cells off the dishes in ice cold 20 mM HEPES/0.1 mM KCl/pH 7.2. The cell suspension was homogenized on ice (Ultra turrax, 3×20 sec.) and the homogenate was spun for 10 min (1° C., 1000 g, OPTIMA, SW28, 2800 U/min). The supernatant was than centrifuged for 40 min at 100000 g (1° C., OPTIMA, SW28, 23000 U/min). The membrane pellet was re-suspended in 20 mM HEPES/0.1 mM KCl pH 7.2, frozen and stored at −80° C.
After thawing on the day of the assay, the membrane suspension was diluted further with 20 mM HEPES/0.1 mM KCl/pH 7.2.
The incubation mixture of 200 μl contained 1.5 nmol/l 3H-Dofetilide, optimized amount of membrane preparation, 20 mM HEPES/0.1 mM KCl/(pH 7.2) and inhibitor in 1% DMSO. Nonspecific binding was estimated in the presence of […] Dofetilide. The samples were incubated for 90 min. at RT.
Binding was terminated by filtration of the incubated membrane preparations using Filtermat B (Pharmacia, Uppsala Sweden) and a Micro Cell Harvester (Skatron, Lier, Norway). The Filtermat B had been presoaked with 1% polyethylen imine and carefully washed with 0.05 M Tris/HCl-buffer pH=7.7 after the filtration to separate free and bound radioactivity. The filters were counted in a scintillation counter (Betaplate 1205, Berthold, Wildbad, Germany) in order to determine the specific binding of [^3H]-Dofetilide.
The optimal amount of membrane preparation in the assay was determined and optimized for each membrane preparation separately in front of using the membranes in compound testing.
For pipetting of the incubation mixture we routinely use the robot Biomek2000 (Fa. Beckman).
A general note: Block of hERG is tested as a sign of cardiac risk.

The mark [1] stands for this setting: [3H]-Dofetilide binding, membranes of HEK cells with human ERG receptor, read-out: IC50.

Chain of rat NR1/NR2B receptor (Q00960 27-1482, other chains not shown): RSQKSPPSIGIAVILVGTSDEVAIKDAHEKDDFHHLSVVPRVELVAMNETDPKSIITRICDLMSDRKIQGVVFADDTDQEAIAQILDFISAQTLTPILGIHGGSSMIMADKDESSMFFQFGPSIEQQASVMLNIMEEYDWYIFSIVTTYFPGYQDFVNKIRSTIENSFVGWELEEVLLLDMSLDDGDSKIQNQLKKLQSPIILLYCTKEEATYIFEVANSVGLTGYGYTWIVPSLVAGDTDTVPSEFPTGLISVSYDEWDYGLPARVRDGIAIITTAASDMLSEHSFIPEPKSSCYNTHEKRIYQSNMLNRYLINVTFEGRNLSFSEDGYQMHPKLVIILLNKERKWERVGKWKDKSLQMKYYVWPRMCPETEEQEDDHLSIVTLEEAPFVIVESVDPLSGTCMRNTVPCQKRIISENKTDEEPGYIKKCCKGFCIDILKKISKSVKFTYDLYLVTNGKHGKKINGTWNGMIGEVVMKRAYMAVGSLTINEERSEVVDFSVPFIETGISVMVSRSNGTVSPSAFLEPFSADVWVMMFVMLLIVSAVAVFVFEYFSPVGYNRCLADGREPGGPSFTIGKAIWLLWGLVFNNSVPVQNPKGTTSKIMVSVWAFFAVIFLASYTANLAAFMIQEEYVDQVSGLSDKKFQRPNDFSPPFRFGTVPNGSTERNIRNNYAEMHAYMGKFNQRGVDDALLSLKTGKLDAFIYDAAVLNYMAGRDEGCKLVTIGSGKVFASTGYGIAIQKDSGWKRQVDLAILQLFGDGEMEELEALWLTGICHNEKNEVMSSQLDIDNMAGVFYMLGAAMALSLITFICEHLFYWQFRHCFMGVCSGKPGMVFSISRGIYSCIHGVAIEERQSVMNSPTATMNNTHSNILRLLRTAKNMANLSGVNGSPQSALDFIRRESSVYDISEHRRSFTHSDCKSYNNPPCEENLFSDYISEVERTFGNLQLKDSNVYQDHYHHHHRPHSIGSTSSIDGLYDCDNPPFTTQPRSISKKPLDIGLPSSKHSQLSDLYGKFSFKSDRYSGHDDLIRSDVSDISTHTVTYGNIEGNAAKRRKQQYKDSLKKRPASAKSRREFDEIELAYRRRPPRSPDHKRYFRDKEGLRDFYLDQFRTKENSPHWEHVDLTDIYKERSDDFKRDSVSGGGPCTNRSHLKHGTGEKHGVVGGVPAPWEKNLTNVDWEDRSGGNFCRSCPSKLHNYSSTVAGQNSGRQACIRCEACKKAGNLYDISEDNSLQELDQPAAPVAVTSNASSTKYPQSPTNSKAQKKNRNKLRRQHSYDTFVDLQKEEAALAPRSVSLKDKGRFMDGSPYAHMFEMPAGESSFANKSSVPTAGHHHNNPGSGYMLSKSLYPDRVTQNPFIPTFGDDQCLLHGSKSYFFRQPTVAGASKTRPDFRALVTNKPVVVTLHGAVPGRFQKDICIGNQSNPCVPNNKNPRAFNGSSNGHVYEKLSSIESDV
Chain of hERG receptor (Q12809 whole entry): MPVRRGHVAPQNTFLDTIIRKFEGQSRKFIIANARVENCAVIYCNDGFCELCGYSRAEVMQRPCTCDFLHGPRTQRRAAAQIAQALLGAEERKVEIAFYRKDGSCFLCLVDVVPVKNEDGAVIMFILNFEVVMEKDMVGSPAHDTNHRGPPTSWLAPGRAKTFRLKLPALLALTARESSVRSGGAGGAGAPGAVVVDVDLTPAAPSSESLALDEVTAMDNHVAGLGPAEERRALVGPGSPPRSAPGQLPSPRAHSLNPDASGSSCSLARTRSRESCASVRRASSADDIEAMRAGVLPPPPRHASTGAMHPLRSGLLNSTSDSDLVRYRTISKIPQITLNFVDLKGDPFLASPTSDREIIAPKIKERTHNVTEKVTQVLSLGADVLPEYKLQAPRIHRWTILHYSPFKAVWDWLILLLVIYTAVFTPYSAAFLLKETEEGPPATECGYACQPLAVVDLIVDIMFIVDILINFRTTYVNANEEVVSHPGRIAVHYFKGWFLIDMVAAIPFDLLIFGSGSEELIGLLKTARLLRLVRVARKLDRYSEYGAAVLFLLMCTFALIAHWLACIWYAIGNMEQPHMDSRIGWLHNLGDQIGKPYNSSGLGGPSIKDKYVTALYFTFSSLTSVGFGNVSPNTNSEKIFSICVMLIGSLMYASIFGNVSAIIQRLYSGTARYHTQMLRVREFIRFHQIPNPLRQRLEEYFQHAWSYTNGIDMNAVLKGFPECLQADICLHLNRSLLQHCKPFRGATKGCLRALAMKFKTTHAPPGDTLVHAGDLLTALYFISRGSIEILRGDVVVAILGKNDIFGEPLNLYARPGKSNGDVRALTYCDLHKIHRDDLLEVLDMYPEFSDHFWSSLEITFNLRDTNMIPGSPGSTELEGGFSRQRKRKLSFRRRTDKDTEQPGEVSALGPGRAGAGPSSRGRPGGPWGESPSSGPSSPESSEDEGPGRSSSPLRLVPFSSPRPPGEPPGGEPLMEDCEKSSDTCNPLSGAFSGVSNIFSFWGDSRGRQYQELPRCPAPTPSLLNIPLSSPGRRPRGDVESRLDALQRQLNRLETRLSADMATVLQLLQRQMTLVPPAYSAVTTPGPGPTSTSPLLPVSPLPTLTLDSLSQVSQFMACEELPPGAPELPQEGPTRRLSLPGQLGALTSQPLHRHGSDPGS

For `Fc1ccc(-c2cnn(Cc3cc(Cn4ccc(-c5ccc(F)c(C(F)F)c5)n4)n[nH]3)c2)cc1C(F)F` [Example 103, 3-(3-(difluoromethyl)-4-fluorophenyl)-1-((5-((4-(3-(difluoromethyl)-4-fluorophenyl)-1H-pyrazol-1-yl)methyl)-1H-pyrazol-3-yl)methyl)-1H-pyrazole], the inhibition at 1 µM at rat NR1/NR2B receptor was found to be 15.5%. In addition, the IC50 at hERG receptor is over 10 µM.
As for `Cn1ccc(Cn2cc(-c3ccc(Cl)c(C(F)F)c3)cn2)n1` [Example 24, 3-[[4-[4-chloro-3-(difluoromethyl)phenyl]pyrazol-1-yl]methyl]-1-methyl-pyrazole], the results for the IC50 on rat NR1/NR2B receptor and on hERG receptor (setting [1]) were 0.41 µM and 4.89 µM, respectively.
In the case of `Cc1cc(Cn2cc(-c3ccc(Cl)c(OC(F)F)c3)cn2)n(C)n1` [Example 3, 5-[[4-[4-Chloro-3-(difluoromethoxy)phenyl]pyrazol-1-yl]methyl]-1,3-dimethyl-pyrazole], the results for the IC50 at rat NR1/NR2B receptor and on hERG receptor (setting [1]) were 0.146 µM and 23.3 µM, respectively.
Taken in the same sequence, the figures for `Cc1cc(-c2cnn(Cc3ccn(C)n3)c2)ccc1Cl` [Example 58, 3-[[4-(4-chloro-3-methyl-phenyl)pyrazol-1-yl]methyl]-1-methyl-pyrazole Succinate] were 0.668 µM and 12.6 µM.
In the case of `Cn1nccc1Cn1cc(-c2ccc(Cl)c(OC(F)F)c2)cn1` [Example 5, 4-[4-Chloro-3-(difluoromethoxy)phenyl]-1-[(2-methylpyrazol-3-yl)methyl]pyrazole], the IC50 on rat NR1/NR2B receptor was determined as 0.148 µM; at hERG receptor, 64.3 µM.
Consider `Cc1cc(-c2cnn(Cc3cc[nH]n3)c2)ccc1F` [Example 56, 4-(4-fluoro-3-methyl-phenyl)-1-(1H-pyrazol-3-ylmethyl)pyrazole], for which the 50% inhibitory concentration (IC50) on rat NR1/NR2B receptor came to 0.0787 µM; on hERG receptor, 93.8 µM.
Consider `Clc1ccc(-c2cnn(Cc3cn4ccccc4n3)c2)cc1` [Example 102, 2-((4-(4-chlorophenyl)-1H-pyrazol-1-yl)methyl)imidazo[1,2-a]pyridine], for which the inhibition at 1 µM on rat NR1/NR2B receptor was 23.3%. At hERG receptor, this molecule showed a half-maximal inhibitory concentration (IC50) of 10.2 µM.
For the molecule `Cc1cc(Cn2cc(-c3ccc(F)c(Cl)c3)cn2)n(C)n1` [Example 62, 5-[[4-(3-chloro-4-fluoro-phenyl)pyrazol-1-yl]methyl]-1,3-dimethyl-pyrazole], the IC50 at rat NR1/NR2B receptor amounted to 0.857 µM; on hERG receptor it was 41.9 µM.
Taken in the same sequence, the figures for `Cc1n[nH]c(C)c1Cn1cc(-c2ccc(F)c(C(C)(F)F)c2)cn1` [Example 90] were 0.422 µM and 84 µM.
Taken in the same sequence, the figures for `CS(=O)(=O)c1cccc(-c2cnn(Cc3cc[nH]n3)c2)c1` [Example 70, 4-(3-methylsulfonylphenyl)-1-(1H-pyrazol-3-ylmethyl)pyrazole Succinate] were 2.69 µM and over 100 µM.
On to `COc1cc(F)ccc1-c1cnn(Cc2ccn(C)n2)c1` [Example 67, 3-[[4-(4-fluoro-2-methoxy-phenyl)pyrazol-1-yl]methyl]-1-methyl-pyrazole Succinate], for which, at rat NR1/NR2B receptor, the inhibition at 1 µM was determined as 15.1%. Also, at rat NR1/NR2B receptor (10 μM test compound, read-out: % INH @ 10 μM), the inhibition at 10 µM turned out to be 16%. Besides, the IC50 at hERG receptor (setting [1]) was determined as 63.3 µM.
`CCn1cncc1Cn1cc(-c2ccc(Cl)cc2)cn1` [Example 98, 4-(4-chlorophenyl)-1-((1-ethyl-1H-imidazol-5-yl)methyl)-1H-pyrazole]: the values for the IC50 on rat NR1/NR2B receptor and at hERG receptor were 1.06 µM and 3.55 µM, respectively.
In the case of `CCC(CC)n1ccc(Cn2cc(-c3ccc(Cl)c(OC(F)F)c3)cn2)n1` [Example 11, 3-[[4-[4-Chloro-3-(difluoromethoxy)phenyl]pyrazol-1-yl]methyl]-1-(1-ethylpropyl)pyrazole], the inhibition at 1 µM at rat NR1/NR2B receptor amounted to 2.7%. Moreover, the IC50 at hERG receptor (setting [1]) is 12.7 µM.
Regarding `Fc1ccc(-c2cnn(CCc3cn[nH]c3)c2)cc1C(F)F` [Example 37, 4-[3-(Difluoromethyl)-4-fluoro-phenyl]-1-[2-(1H-pyrazol-4-yl)ethyl]pyrazole], the IC50 at rat NR1/NR2B receptor is 2.06 µM; on hERG receptor, 38.1 µM.
As for `CCn1cncc1Cn1cc(-c2ccc(Cl)c(C(F)F)c2)cn1` [Example 95, 4-(4-chloro-3-(difluoromethyl)phenyl)-1-((1-ethyl-1H-imidazol-5-yl)methyl)-1H-pyrazole], the IC50 at rat NR1/NR2B receptor was determined as 0.0635 µM; on hERG receptor (setting [1]) it was 6.36 µM.
Take `Cn1ccc(Cn2cc(-c3ccc(Cl)cc3Cl)cn2)n1` [Example 66, 3-[[4-(2,4-dichlorophenyl)pyrazol-1-yl]methyl]-1-methyl-pyrazole Succinate]: the IC50 was 5.21 µM on rat NR1/NR2B receptor and 8.86 µM at hERG receptor.
On to `Cn1nccc1-n1cc(-c2ccc(F)c(Cl)c2)cn1` [Example 101, 4-(3-chloro-4-fluorophenyl)-2′-methyl-2′H-1,3′-bipyrazole], for which the half-inhibitory concentration (IC50) on rat NR1/NR2B receptor came to 5.6 µM; at hERG receptor it was 118 µM.
Taken in the same sequence, the figures for `CCn1cc(CCn2cc(-c3ccc(Cl)c(OC(F)F)c3)cn2)cn1` [Example 10, 4-[4-Chloro-3-(difluoromethoxy)phenyl]-1-[2-(1-ethylpyrazol-4-yl)ethyl]pyrazole] were 0.25 µM and 18.4 µM.
For the molecule `Cc1cc(Cn2cc(-c3ccc(Cl)c(Cl)c3)cn2)n(C)n1` [Example 64, 5-[[4-(3,4-dichlorophenyl)pyrazol-1-yl]methyl]-1,3-dimethyl-pyrazole], the half-maximal inhibitory concentration (IC50) on rat NR1/NR2B receptor was 1.1 µM; on hERG receptor, 14.4 µM.
Taken in the same sequence, the figures for `Cc1cc(Cn2cc(-c3ccc(F)c(C(F)F)c3)cn2)n(C)n1` [Example 32, 5-[[4-[3-(Difluoromethyl)-4-fluoro-phenyl]pyrazol-1-yl]methyl]-1,3-dimethyl-pyrazole] were 0.323 µM and 38.6 µM.
In the same order, the values of `FS(F)(F)(F)(F)c1cccc(-c2cnn(Cc3cc[nH]n3)c2)c1` [Example 72, 1-((1H-pyrazol-3-yl)methyl)-4-(3-(pentafluoro-16-sulfanyl)phenyl)-1H-pyrazole Succinate] are 0.0951 µM and 44.7 µM.
With `Cn1nccc1-n1cc(-c2ccc(Cl)c(Cl)c2)cn1` [Example 100, 4-(3,4-dichlorophenyl)-2′-methyl-2′H-1,3′-bipyrazole], the values for the IC50 at rat NR1/NR2B receptor and at hERG receptor (setting [1]) were 3.17 µM and 60.3 µM, respectively.
In the case of `c1cc(-c2cnn(Cc3cc[nH]n3)c2)cc(C2CC2)c1` [Example 69, 4-(3-cyclopropylphenyl)-1-(1H-pyrazol-3-ylmethyl)pyrazole Succinate], the values for the IC50 on rat NR1/NR2B receptor and on hERG receptor were 0.831 µM and over 100 µM, respectively.
In the same order, the values of `Cc1cc(-c2cnn(Cc3ccn(C)n3)c2)ccc1F` [Example 55, 3-[[4-(4-fluoro-3-methyl-phenyl)pyrazol-1-yl]methyl]-1-methyl-pyrazole Succinate] are 0.871 µM and 21.1 µM.
`Cc1cc(Cn2cc(-c3ccc(Cl)c(OC(F)F)c3)cn2)[nH]n1` [Example 13, 4-[4-Chloro-3-(difluoromethoxy)phenyl]-1-[(3-methyl-1H-pyrazol-5-yl)methyl]pyrazole]: the IC50 at rat NR1/NR2B receptor came to 0.0221 µM; at hERG receptor, 37 µM.
